Experiments:
Assay type in all cases: biochemical
IKKb = IKKb (Homo sapiens, UniProt O14920); assay: Protein kinase assay ([γ-32P] ATP), IKKb; conditions: read-out: Activity of the protein kinase when treated with compound I-1 (% control)
Method: (§1) In another set of experiments, the activities of the compounds described herein against various protein kinases were determined according to the methods reported in Hastie et al., Nature Protocols, 2006, 1, 968-971.
(§2) Enzyme dilution buffer. This buffer consisted of 50 mM Tris-HCl, pH 7.5, 0.1 mM EGTA, 1 mg ml^−1 bovine serum albumin and 0.1% (vol/vol) 2-mercaptoethanol.
(§3) 10× concentrated assay buffer. An assay buffer of 500 mM Tris-HCl, pH 7.5, 1 mM EGTA, and 100 mM magnesium acetate was used for assay of a wide variety of protein kinases. In some experiments, other cofactors were included (e.g., calcium ions and calmodulin were included for assay of calcium-calmodulindependent protein kinases).
(§4) 1 mM [γ-^32P] ATP. The specific activity of the [γ-^32P] ATP solution was 1×10^5 to 1×10^6 c.p.m. per nmol depending on what was needed to produce an optimal signal/noise ratio. […] To measure the concentration of ATP, a sample of such a stock solution was diluted to 20 μM, and the absorbance of the diluted sample was measured at 259 nm. The absorbance of a 20-μM stock solution of ATP at 259 nm was about 0.31. […] ATP to produce a radioactivity of 1×10^5 to 1×10^6 c.p.m. per nmol. […]
(§5) 13) Measure radioactivity in the samples by Cerenkov counting (e.g., without liquid scintillation fluid) in a liquid scintillation counter using a “^32P program”. […]

SGK1 = SGK1 (Homo sapiens, UniProt O00141); assay: Protein kinase assay ([γ-32P] ATP), SGK1; conditions: read-out: Activity of the protein kinase when treated with compound I-1 (% control)
Sequence of SGK1 (O00141 whole entry, species assumed): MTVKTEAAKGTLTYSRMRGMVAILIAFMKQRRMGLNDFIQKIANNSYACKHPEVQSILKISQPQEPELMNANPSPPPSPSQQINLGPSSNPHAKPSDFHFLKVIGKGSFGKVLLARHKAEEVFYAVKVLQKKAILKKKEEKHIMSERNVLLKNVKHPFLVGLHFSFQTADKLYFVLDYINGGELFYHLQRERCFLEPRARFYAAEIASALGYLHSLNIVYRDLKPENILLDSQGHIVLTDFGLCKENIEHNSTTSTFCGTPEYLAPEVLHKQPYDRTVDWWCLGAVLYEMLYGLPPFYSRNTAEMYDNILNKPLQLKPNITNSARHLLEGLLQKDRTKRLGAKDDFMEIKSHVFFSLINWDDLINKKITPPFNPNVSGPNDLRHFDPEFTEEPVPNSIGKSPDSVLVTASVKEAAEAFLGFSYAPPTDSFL
Method: as §1, §2, §3, §4, §5

PRAK = PRAK (Homo sapiens, UniProt Q8IW41); assay: Protein kinase assay ([γ-32P] ATP), PRAK; conditions: read-out: Activity of the protein kinase when treated with compound I-1 (% control)
Method: as §1, §2, §3, §4, §5

MARK4 = MARK4 (Homo sapiens, UniProt Q96L34); assay: Protein kinase assay ([γ-32P] ATP), MARK4; conditions: read-out: Activity of the protein kinase when treated with compound I-1 (% control)
Sequence of MARK4 (Q96L34 whole entry): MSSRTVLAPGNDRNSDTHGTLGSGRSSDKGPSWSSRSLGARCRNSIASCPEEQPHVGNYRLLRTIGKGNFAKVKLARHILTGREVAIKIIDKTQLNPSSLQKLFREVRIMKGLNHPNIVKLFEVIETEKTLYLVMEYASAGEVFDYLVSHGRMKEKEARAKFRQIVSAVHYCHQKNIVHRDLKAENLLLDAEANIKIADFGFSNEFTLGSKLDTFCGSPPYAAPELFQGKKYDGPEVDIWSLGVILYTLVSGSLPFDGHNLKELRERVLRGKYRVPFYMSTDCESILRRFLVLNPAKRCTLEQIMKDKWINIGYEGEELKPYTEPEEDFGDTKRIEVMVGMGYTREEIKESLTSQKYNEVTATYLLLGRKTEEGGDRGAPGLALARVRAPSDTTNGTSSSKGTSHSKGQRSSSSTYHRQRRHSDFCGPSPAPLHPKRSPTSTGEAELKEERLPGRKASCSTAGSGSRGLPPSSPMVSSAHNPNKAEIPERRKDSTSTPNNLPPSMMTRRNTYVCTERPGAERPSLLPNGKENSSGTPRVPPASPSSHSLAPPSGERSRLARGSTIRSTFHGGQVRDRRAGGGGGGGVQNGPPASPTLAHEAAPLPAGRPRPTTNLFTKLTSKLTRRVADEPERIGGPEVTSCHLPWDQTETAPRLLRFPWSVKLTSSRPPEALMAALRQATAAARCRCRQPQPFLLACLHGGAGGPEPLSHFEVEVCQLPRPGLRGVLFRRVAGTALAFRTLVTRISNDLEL
Method: as §1, §2, §3, §4, §5

p38g MAPK = p38g MAPK (Homo sapiens, UniProt P53778); assay: Protein kinase assay ([γ-32P] ATP), p38g MAPK; conditions: read-out: Activity of the protein kinase when treated with compound I-1 (% control)
Method: as §1, §2, §3, §4, §5

WNK1 = WNK1 (Homo sapiens, UniProt Q9H4A3); assay: Protein kinase assay ([γ-32P] ATP), WNK1; conditions: read-out: Activity of the protein kinase when treated with compound I-1 (% control)
Method: as §1, §2, §3, §4, §5

NEK6 = NEK6 (Homo sapiens, UniProt Q9HC98); assay: Protein kinase assay ([γ-32P] ATP), NEK6; conditions: read-out: Activity of the protein kinase when treated with compound I-1 (% control)
Method: as §1, §2, §3, §4, §5

SmMLCK = SmMLCK (Homo sapiens, UniProt Q15746); assay: Protein kinase assay ([γ-32P] ATP), SmMLCK; conditions: read-out: Activity of the protein kinase when treated with compound I-1 (% control)
Sequence of SmMLCK (Q15746 923-1914): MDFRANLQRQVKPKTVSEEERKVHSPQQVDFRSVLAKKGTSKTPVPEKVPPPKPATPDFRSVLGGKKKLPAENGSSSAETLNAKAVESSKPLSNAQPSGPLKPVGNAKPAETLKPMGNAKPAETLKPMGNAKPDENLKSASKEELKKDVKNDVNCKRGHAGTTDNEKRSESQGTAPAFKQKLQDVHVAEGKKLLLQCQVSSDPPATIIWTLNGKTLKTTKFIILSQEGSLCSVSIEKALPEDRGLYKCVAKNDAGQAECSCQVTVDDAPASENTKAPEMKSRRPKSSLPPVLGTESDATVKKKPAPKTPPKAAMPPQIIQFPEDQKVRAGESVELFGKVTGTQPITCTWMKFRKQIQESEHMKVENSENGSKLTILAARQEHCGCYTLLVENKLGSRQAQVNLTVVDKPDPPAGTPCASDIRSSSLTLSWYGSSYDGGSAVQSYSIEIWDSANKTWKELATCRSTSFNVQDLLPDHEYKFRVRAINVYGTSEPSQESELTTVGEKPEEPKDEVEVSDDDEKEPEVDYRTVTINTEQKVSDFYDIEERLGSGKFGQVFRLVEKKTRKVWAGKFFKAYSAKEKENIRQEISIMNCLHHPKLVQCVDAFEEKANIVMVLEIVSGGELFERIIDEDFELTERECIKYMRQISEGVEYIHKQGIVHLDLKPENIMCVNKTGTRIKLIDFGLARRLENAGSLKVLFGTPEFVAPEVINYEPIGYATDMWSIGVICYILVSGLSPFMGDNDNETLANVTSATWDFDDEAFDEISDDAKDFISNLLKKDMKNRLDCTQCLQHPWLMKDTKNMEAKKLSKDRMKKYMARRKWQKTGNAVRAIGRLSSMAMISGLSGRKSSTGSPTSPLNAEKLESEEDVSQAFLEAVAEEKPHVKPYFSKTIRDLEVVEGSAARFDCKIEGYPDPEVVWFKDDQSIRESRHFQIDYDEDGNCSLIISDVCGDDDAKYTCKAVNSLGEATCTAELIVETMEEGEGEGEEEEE
Method: as §1, §2, §3, §4, §5

EPH-B4 = EPH-B4 (Homo sapiens, UniProt P54760); assay: Protein kinase assay ([γ-32P] ATP), EPH-B4; conditions: read-out: Activity of the protein kinase when treated with compound I-1 (% control)
Sequence of EPH-B4 (P54760 16-987): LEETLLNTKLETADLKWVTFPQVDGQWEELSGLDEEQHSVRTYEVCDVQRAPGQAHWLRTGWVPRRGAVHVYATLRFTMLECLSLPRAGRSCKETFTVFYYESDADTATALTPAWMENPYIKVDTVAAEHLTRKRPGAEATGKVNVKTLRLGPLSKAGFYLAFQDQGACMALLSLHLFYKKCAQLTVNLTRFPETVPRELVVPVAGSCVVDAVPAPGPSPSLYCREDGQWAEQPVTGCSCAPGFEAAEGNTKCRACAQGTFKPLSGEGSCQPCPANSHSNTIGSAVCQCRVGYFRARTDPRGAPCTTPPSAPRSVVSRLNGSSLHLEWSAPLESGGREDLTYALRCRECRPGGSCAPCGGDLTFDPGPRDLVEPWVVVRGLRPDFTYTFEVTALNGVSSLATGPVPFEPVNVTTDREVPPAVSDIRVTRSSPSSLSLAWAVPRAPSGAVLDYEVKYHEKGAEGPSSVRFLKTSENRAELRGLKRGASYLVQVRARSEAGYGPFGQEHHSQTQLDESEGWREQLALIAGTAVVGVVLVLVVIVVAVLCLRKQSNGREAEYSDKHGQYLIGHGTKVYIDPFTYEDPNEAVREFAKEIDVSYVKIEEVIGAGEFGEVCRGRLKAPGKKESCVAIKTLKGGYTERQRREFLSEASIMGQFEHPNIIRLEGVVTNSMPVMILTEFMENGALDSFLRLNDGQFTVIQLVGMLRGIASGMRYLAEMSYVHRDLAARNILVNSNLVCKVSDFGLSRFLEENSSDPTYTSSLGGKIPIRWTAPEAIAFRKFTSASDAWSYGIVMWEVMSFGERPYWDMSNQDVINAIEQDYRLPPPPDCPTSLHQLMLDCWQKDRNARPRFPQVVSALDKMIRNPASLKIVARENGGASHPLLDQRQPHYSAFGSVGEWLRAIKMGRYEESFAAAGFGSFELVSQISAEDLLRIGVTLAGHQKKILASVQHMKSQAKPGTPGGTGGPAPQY
Method: as §1, §2, §3, §4, §5

DYRK2 = DYRK2 (Homo sapiens, UniProt Q92630); assay: Protein kinase assay ([γ-32P] ATP), DYRK2; conditions: read-out: Activity of the protein kinase when treated with compound I-1 (% control)
Method: as §1, §2, §3, §4, §5

PIM3 = PIM3 (Homo sapiens, UniProt Q86V86); assay: Protein kinase assay ([γ-32P] ATP), PIM3; conditions: read-out: Activity of the protein kinase when treated with compound I-1 (% control)
Method: as §1, §2, §3, §4, §5

CAMK1 = CAMK1 (Homo sapiens, UniProt Q14012); assay: Protein kinase assay ([γ-32P] ATP), CAMK1; conditions: read-out: Activity of the protein kinase when treated with compound I-1 (% control)
Sequence of CAMK1 (Q14012 whole entry): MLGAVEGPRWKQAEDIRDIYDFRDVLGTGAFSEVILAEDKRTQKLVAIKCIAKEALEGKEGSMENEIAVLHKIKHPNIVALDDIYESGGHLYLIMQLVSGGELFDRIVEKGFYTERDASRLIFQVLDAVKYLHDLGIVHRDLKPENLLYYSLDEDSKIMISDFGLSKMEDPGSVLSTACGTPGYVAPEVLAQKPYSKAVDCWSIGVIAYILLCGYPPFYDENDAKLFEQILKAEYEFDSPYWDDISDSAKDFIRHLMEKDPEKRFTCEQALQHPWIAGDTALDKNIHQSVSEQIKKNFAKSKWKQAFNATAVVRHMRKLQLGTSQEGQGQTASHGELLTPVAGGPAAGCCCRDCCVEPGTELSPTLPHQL
Method: as §1, §2, §3, §4, §5

HER4 = HER4 (Homo sapiens, UniProt Q15303); assay: Protein kinase assay ([γ-32P] ATP), HER4; conditions: read-out: Activity of the protein kinase when treated with compound I-1 (% control)
Method: as §1, §2, §3, §4, §5

SRPK1 = SRPK1 (Homo sapiens, UniProt Q96SB4); assay: Protein kinase assay ([γ-32P] ATP), SRPK1; conditions: read-out: Activity of the protein kinase when treated with compound I-1 (% control)
Sequence of SRPK1 (Q96SB4 whole entry, species assumed): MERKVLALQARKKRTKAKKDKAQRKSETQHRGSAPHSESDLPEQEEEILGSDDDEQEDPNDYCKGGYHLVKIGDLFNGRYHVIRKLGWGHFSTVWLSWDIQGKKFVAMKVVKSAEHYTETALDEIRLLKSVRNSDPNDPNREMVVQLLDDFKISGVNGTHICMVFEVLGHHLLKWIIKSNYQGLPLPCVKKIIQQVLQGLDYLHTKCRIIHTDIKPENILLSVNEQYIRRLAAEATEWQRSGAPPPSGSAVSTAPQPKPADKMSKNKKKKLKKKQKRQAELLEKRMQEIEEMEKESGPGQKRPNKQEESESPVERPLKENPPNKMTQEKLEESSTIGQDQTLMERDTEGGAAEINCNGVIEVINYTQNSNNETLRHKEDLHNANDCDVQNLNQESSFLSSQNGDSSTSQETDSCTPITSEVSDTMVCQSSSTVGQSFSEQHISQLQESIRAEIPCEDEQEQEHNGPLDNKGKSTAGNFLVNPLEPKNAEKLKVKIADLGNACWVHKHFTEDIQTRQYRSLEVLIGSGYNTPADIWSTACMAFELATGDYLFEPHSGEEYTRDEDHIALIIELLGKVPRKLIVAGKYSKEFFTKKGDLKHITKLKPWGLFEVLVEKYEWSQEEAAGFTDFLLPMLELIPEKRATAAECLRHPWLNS
Method: as §1, §2, §3, §4, §5

PKA = PKA (Homo sapiens, UniProt P17612); assay: Protein kinase assay ([γ-32P] ATP), PKA; conditions: read-out: Activity of the protein kinase when treated with compound I-1 (% control)
Method: as §1, §2, §3, §4, §5

CSK = CSK (Homo sapiens, UniProt P41240); assay: Protein kinase assay ([γ-32P] ATP), CSK; conditions: read-out: Activity of the protein kinase when treated with compound I-1 (% control)
Method: as §1, §2, §3, §4, §5

ROCK 2 = assay: Protein kinase assay ([γ-32P] ATP), ROCK 2
Method: as §1, §2, §3, §4, §5

[1] = 0.1 μM of compound I-1, DMSO control = 100%
[2] = 1 μM of compound I-1, DMSO control = 100%

Sequence of IKKb (O14920 whole entry): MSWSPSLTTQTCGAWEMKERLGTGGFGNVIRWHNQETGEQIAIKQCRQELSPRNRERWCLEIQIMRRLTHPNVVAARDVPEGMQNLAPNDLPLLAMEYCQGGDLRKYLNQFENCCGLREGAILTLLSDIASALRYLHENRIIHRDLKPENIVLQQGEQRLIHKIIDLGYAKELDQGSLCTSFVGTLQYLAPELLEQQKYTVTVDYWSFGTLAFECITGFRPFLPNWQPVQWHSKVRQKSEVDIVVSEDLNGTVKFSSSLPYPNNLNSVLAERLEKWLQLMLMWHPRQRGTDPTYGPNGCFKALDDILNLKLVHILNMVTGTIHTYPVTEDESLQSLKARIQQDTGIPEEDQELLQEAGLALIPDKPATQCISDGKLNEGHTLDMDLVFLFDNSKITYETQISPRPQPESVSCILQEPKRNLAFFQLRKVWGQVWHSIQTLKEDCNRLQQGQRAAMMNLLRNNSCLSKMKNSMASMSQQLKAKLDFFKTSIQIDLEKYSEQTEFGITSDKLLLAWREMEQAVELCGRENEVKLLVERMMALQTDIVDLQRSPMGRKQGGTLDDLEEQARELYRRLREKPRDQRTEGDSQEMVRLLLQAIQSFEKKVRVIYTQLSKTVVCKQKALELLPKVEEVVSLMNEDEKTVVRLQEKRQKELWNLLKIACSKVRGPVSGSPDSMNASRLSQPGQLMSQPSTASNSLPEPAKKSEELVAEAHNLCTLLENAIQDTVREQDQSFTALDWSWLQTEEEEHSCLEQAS

`Cc1cccc(C)c1NC(=O)N1C/C=C\COc2cccc(c2)Nc2cc1ncn2` [Compound I-1] gave a remaining activity at 0.1 µM (IKKb; [1]) of 103%, a remaining activity at 1 µM (IKKb; [2]) of 77% and a remaining activity at 0.1 µM (SGK1; [1]) of 96%. The remaining activity at 1 µM (SGK1; [2]) was 100%, the remaining activity at 0.1 µM (PRAK; [1]) was 107% and the remaining activity at 1 µM (PRAK; [2]) was 84%. It also gave a remaining activity at 0.1 µM (MARK4; [1]) of 103%, a remaining activity at 1 µM (MARK4; [2]) of 81% and a remaining activity at 0.1 µM (p38g MAPK; [1]) of 101%. For the same molecule, the remaining activity at 1 µM (p38g MAPK; [2]) was 88%, the remaining activity at 0.1 µM (WNK1; [1]) was 102% and the remaining activity at 1 µM (WNK1; [2]) was 85%. The remaining activity at 0.1 µM (NEK6; [1]) was 91%, the remaining activity at 1 µM (NEK6; [2]) was 87% and the remaining activity at 0.1 µM (SmMLCK; [1]) was 91%. The remaining activity at 1 µM (SmMLCK; [2]) was 85%, the remaining activity at 0.1 µM (EPH-B4; [1]) was 55% and the remaining activity at 1 µM (EPH-B4; [2]) was 4%. For the same molecule, the remaining activity at 0.1 µM (DYRK2; [1]) was 103%, the remaining activity at 1 µM (DYRK2; [2]) was 76% and the remaining activity at 0.1 µM (PIM3; [1]) was 93%. It also gave a remaining activity at 1 µM (PIM3; [2]) of 84%, a remaining activity at 0.1 µM (CAMK1; [1]) of 115% and a remaining activity at 1 µM (CAMK1; [2]) of 56%. For the same molecule, the remaining activity at 0.1 µM (HER4; [1]) was 100%, the remaining activity at 1 µM (HER4; [2]) was 71% and the remaining activity at 0.1 µM (SRPK1; [1]) was 100%. The remaining activity at 1 µM (SRPK1; [2]) was 74%, the remaining activity at 0.1 µM (PKA; [1]) was 105% and the remaining activity at 1 µM (PKA; [2]) was 88%. The remaining activity at 0.1 µM (CSK; [1]) was 101%, the remaining activity at 1 µM (CSK; [2]) was 10% and the “Activity of the protein kinase when treated with compound I-1 (% control)” value (ROCK 2; [1]) was 95 % control. For the same molecule, the “Activity of the protein kinase when treated with compound I-1 (% control)” value (ROCK 2; [2]) was 91 % control.
